According to US8258140B2 (Astrazeneca AB, priority 2009, dated 2012):

Each compound was assayed against T1, Androgen Receptor (AR) in the LNCaP prostate carcinoma cell line (Homo sapiens, UniProt P10275, T878A) (assay: LNCaP Androgen Receptor Down-Regulation Cell Assay (immunofluorescence end point)). Details: LNCaP cells, compound incubation 20-22 hours, concentration giving 50% reduction of the AR signal.
T1 construct: cell based immuno-fluorescence assay using the LNCaP prostate epithelial cell line; host or cells: LNCaP clone FGC
T1 sequence (P10275 1-920 T878A): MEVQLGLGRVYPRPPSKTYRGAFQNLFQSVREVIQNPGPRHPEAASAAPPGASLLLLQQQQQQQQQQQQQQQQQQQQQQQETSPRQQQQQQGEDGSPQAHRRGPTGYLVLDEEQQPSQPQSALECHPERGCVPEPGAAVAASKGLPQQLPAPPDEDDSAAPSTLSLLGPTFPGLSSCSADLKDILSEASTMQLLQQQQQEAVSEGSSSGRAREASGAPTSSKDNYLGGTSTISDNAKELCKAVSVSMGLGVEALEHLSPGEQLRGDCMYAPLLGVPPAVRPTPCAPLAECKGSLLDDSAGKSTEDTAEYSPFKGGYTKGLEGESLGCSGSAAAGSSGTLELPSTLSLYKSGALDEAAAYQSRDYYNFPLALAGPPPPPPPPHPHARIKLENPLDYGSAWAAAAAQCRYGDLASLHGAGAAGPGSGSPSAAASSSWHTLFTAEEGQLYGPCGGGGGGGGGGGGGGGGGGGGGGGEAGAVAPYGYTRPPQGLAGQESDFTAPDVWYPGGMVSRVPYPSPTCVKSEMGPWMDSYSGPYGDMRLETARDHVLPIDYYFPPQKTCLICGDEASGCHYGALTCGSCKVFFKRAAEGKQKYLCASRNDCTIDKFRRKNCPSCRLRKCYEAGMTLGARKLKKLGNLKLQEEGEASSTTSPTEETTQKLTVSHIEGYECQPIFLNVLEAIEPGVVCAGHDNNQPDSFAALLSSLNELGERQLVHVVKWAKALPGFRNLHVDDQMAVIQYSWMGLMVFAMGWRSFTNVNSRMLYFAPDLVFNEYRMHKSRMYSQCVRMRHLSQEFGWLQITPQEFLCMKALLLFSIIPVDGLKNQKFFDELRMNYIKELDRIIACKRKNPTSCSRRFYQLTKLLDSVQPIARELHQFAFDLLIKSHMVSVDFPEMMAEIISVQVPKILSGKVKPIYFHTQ
Format: cell-based
How it was run: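 LNCaP cells (6.5×10^3/well) in phenol-red-free RPMI with 5% charcoal-stripped FBS were treated with compound dilutions for 20–22 h at 37 °C. They were then formaldehyde-fixed, permeabilised, blocked and immunostained for AR with monoclonal antibody AR441.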

IC50 [µM]	SMILES
1.7	CN1CCN(CCOc2ccc(C3CCN(C4=Nn5c(nnc5C(F)(F)F)CC4)CC3)cc2)CC1=O [Example 37, 1-methyl-4-[2-(4-{1-[3-(trifluoromethyl)-7,8-dihydro[1,2,4]triazolo[4,3-b]pyridazin-6-yl]piperidin-4-yl}phenoxy)ethyl]piperazin-2-one]
1.2	CC(=O)N1CCN(CCCOc2ccc(C3CCN(C4=Nn5c(nnc5C(F)(F)F)CC4)CC3)cc2)CC1 [Example 4.1, 6-[4-[4-[3-(4-acetylpiperazin-1-yl)propoxy]phenyl]piperidin-1-yl]-3-(trifluoromethyl)-7,8-dihydro[1,2,4]triazolo[4,3-b]pyridazine]
0.25	CC(=O)N1CCN(CCOc2ccc(C3CCN(C4=Nn5c(nnc5C(F)(F)F)CC4)CC3)cc2)C[C@H]1C [Example 51, 6-[4-(4-{2-[(3R)-4-acetyl-3-methylpiperazin-1-yl]ethoxy}phenyl)piperidin-1-yl]-3-(trifluoromethyl)-7,8-dihydro[1,2,4]triazolo[4,3-b]pyridazine]
1.8	CC(=O)N1CCN(CCOc2ccc(C3CCN(C4=Nn5c(nnc5C(F)(F)F)CC4)CC3)cc2)CC1 [Example 5.1, 6-(4-{4-[2-(4-acetylpiperazin-1-yl)ethoxy]phenyl}piperidin-1-yl)-3-(trifluoromethyl)-7,8-dihydro[1,2,4]triazolo[4,3-b]pyridazine]
